The supplement of paper PMC10307832

Experiments:
Assay in all cases: relative viability (nuclei count vs DMSO), 5 days (fraction); higher = more cells survive
[1] = compound: C1=CC=C(C(=C1)C2=CC=C(C=C2)C3=CSC4=C3C(=C(C(=O)N4)C#N)O)O + COc1cc2c(Oc3ccc(NC(=O)C4(C(=O)Nc5ccc(F)cc5)CC4)cc3F)ccnc2cc1OCCCN1CCOCC1 [Foretinib] (partner 0.25 µM)
Summary of the method: (§1)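 For relative viability, nuclei counts in treated wells were divided by those in vehicle wells. Lung cancer cell lines had been pin-tool dosed in 1536-well plates the day after seeding and cultured for 5 days, then fixed and stained in one step (final 0.05% Triton X-100, 1% formaldehyde, 1 ug/ml Hoechst) and imaged at 4×. Doses were one drug alone or a fixed anchor-drug dose plus five library-drug doses (not always all listed) in √10 steps, and values are duplicate-plate medians.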

[2] = compound: CC1=CN2C(=O)C=C(N=C2C(=C1)C(C)NC3=CC=CC=C3)N4CCOCC4 [TGX 221] + Cc1cc(Nc2cc(N3CCN(C)CC3)nc(Sc3ccc(NC(=O)C4CC4)cc3)n2)n[nH]1 [Tozasertib] (partner 0.1 µM)
Summary of the method: as §1

[3] = compound: CC1=CN2C(=O)C=C(N=C2C(=C1)C(C)NC3=CC=CC=C3)N4CCOCC4 [TGX 221] + Nc1ncn([C@H]2C[C@H](O)[C@@H](CO)O2)c(=O)n1 [Decitabine] (partner 2 µM)
Summary of the method: as §1

[4] = compound: C1=CC=C(C(=C1)C2=CC=C(C=C2)C3=CSC4=C3C(=C(C(=O)N4)C#N)O)O + CS(=O)(=O)CCNCc1ccc(-c2ccc3ncnc(Nc4ccc(OCc5cccc(F)c5)c(Cl)c4)c3c2)o1 [Lapatinib] (partner 2 µM)
Summary of the method: as §1

Row | Cell Line | relative viability ([1]; first compound 0.08 µM) | relative viability ([1]; first compound 0.253 µM) | relative viability ([1]; first compound 0.8 µM) | relative viability ([1]; first compound 2.53 µM) | relative viability ([1]; first compound 8 µM) | relative viability ([2]; first compound 0.08 µM) | relative viability ([2]; first compound 0.253 µM) | relative viability ([2]; first compound 0.8 µM) | relative viability ([2]; first compound 2.53 µM) | relative viability ([2]; first compound 8 µM) | relative viability ([3]; first compound 0.08 µM) | relative viability ([3]; first compound 0.253 µM) | relative viability ([3]; first compound 0.8 µM) | relative viability ([3]; first compound 2.53 µM) | relative viability ([3]; first compound 8 µM) | relative viability ([4]; first compound 0.08 µM) | relative viability ([4]; first compound 0.253 µM) | relative viability ([4]; first compound 0.8 µM) | relative viability ([4]; first compound 2.53 µM) | relative viability ([4]; first compound 8 µM)
1 | LCLC-97TM1 | 0.827 | 1.16 | 1.01 | 1.03 | 0.91 | 0.214 | 0.179 | 0.191 | 0.239 | 0.143 | 0.206 | 0.22 | 0.233 | 0.228 | 0.225 | 1.01 | 1.6 | 1.05 | 0.68 | 0.92
2 | NCI-H1734 | 0.783 | 0.803 | 0.899 | 0.971 | 0.738 | 0.247 | 0.247 | 0.263 | 0.263 | 0.271 | 0.508 | 0.527 | 0.492 | 0.518 | 0.431 | 1.09 | 1.05 | 1.16 | 1.01 | 0.887
3 | NCI-H661 | 1.3 | 1.06 | 0.898 | 1.02 | 0.99 | 0.348 | 0.371 | 0.392 | 0.358 | 0.373 | 0.537 | 0.529 | 0.56 | 0.564 | 0.505 | 0.446 | 0.481 | 0.501 | 0.507 | 0.382
4 | SK-LU-1 | 0.886 | 0.733 | 0.871 | 0.947 | 0.734 | 0.346 | 0.356 | 0.321 | 0.343 | 0.308 | 0.612 | 0.626 | 0.522 | 0.588 | 0.626 | 0.977 | 1.1 | 0.685 | 1.05 | 0.682
5 | LC-2-ad | 0.877 | 1.06 | 0.96 | 0.968 | 0.753 | 0.451 | 0.479 | 0.454 | 0.402 | 0.396 | 0.765 | 0.793 | 0.822 | 0.826 | 0.742 | 0.781 | 1.01 | 0.903 | 1.1 | 1.11
6 | NCI-H1355 | 0.895 | 1.01 | 1.12 | 0.951 | 0.703 | 0.541 | 0.564 | 0.621 | 0.483 | 0.382 | 0.35 | 0.349 | 0.355 | 0.325 | 0.309 | 0.949 | 0.966 | 1.1 | 0.81 | 0.999
7 | NCI-H1793 | 0.623 | 0.673 | 0.691 | 0.595 | 0.555 | 0.311 | 0.239 | 0.244 | 0.16 | 0.166 | 0.442 | 0.369 | 0.479 | 0.381 | 0.37 | 0.583 | 0.765 | 0.825 | 0.701 | 0.598
8 | H3255 | 0.715 | 0.803 | 0.738 | 0.844 | 1.07 | 0.449 | 0.529 | 0.692 | 0.563 | 0.613 | 0.54 | 0.595 | 0.53 | 0.58 | 0.553 | 0.231 | 0.292 | 0.231 | 0.235 | 0.25
9 | NCI-H2342 | 1.01 | 1.1 | 1.1 | 1.03 | 0.856 | 0.422 | 0.484 | 0.6 | 0.547 | 0.447 | 0.693 | 0.638 | 0.725 | 0.68 | 0.773 | – | – | – | – | –
10 | NCI-H838 | 1.06 | 0.981 | 1.05 | 0.954 | 0.91 | 0.276 | 0.257 | 0.282 | 0.247 | 0.192 | 0.443 | 0.448 | 0.462 | 0.447 | 0.452 | 0.659 | 1.11 | 0.973 | 0.887 | 0.872
11 | NCI-H727 | 1.26 | 0.97 | 1.27 | 0.789 | 0.843 | 0.543 | 0.64 | 0.65 | 0.571 | 0.542 | 0.826 | 0.822 | 0.796 | 0.864 | 0.915 | 0.834 | 0.844 | 0.927 | 0.589 | 0.757
12 | UMC-11 | 0.809 | 0.855 | 1.15 | 1.19 | 0.858 | 0.183 | 0.195 | 0.204 | 0.203 | 0.194 | 0.522 | 0.545 | 0.725 | 0.572 | 0.62 | 0.745 | 0.871 | 0.941 | 1 | 0.858
13 | CAL-12T | 0.951 | 1.13 | 1.2 | 1.19 | 1.01 | 0.324 | 0.329 | 0.322 | 0.314 | 0.2 | – | – | – | – | – | – | 0.848 | 0.604 | 0.617 | 0.599
14 | NCI-H1755 | 0.966 | 0.924 | 0.89 | 0.929 | 0.95 | 0.522 | 0.499 | 0.521 | 0.538 | 0.428 | 0.723 | 0.657 | 0.655 | 0.631 | 0.632 | 0.938 | 1.11 | 0.875 | 1.11 | 1.1
